Assay results reported in PubChem BioAssay AID1671289.

Target: Receptor tyrosine-protein kinase erbB-2 (Homo sapiens) (UniProt P04626)
Test: inhibition of HER2 tyrosine kinase activity – biochemical, Z'-LYTE FRET, direct format, recombinant human, dose response (AID 1671289)
Conditions: recombinant ERBB2

Chain of Receptor tyrosine-protein kinase erbB-2 (Homo sapiens) (P04626 whole entry, looked up): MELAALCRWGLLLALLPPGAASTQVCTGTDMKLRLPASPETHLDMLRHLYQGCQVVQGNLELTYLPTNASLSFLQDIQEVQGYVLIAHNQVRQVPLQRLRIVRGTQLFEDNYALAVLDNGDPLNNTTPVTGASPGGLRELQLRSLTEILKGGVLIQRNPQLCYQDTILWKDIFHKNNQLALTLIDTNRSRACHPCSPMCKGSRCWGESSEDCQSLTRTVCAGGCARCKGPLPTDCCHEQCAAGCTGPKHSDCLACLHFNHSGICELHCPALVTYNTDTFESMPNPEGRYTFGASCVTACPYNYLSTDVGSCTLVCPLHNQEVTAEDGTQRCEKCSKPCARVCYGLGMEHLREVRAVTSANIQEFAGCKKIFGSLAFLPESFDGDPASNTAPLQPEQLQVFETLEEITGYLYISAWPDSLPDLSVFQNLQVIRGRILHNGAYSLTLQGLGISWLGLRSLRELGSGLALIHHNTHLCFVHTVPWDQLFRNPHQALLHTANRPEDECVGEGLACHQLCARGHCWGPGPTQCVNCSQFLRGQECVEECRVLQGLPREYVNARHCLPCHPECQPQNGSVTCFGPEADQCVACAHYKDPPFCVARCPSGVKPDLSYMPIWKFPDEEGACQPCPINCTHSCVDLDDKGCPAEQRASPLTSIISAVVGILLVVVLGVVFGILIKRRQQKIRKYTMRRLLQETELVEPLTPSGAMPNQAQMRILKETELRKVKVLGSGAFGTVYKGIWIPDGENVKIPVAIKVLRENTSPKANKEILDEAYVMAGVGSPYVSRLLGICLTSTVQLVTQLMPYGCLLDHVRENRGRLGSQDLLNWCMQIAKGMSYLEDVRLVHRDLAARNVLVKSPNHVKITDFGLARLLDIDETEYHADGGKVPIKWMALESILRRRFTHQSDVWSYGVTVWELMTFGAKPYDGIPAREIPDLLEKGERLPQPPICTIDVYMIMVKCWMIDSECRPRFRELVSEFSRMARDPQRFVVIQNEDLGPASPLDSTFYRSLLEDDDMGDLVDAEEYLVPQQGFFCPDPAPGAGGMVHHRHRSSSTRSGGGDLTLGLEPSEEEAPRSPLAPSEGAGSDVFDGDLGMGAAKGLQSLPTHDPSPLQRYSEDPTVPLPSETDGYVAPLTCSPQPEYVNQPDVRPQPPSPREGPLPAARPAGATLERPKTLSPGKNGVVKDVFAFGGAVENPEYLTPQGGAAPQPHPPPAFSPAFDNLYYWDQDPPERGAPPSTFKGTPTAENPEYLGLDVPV

IC50: 46.5 nM
Compound: COc1cc2ncnc(Nc3cccc(Cl)c3)c2cc1OC
